Experimental data taken from patent US20040137455A1, “Diagnosis of cancer or benign tumor using the aberrant expression product of the klk4 gene” (priority 2001, published 2004).

What was measured:
[1] = tested on: K4 protein in the KLE cell line; experiment: Western analysis of K4 protein levels in KLE cells after steroid treatment; format: cell-based, human; conditions: KLE endometrial cancer cell line, 10 nmol/L steroid, 48 h, 200 μg intracellular protein
Description: The endometrial cancer cell lines, Ishikawa (well differentiated), HEC1A, HEC1B, RL95-2 (moderately differentiated) and KLE (poorly differentiated) and the prostate cancer cell line LNCaP, used for a control, were obtained from the American Type Culture Collection, Rockville, Md. Prostate and kidney control tissue was obtained from Royal Brisbane Hospital and Princess Alexandra Hospital respectively. All cell lines were cultured in DMEM (Life Technologies, Rockville, Md.) with 10% FCS, 50 U/mL Penicillin G and 50 μg/mL Streptomycin (CSL Biosciences, Melbourne, Australia) at 37 C and 5% CO2. The regulation studies were performed in triplicate in the KLE cell line using phenol red and FCS-free media. After 24 h, fresh media was supplemented with 10 nmol/L 17β-estradiol or progesterone, (Sigma Chemical Company, St Louis, Mo.) and the cells were maintained for 48 h with these steroids. In addition, […] progesterone was added to one group of oestrogen-treated cells after 24 h. […] Detection was determined using X-ray film and visualisation of the chemiluminescence signal. Fold changes in the level of signal were assessed using the Hewlett Packard Scan Jet IICX and ImagQuant™ 4.21A software (Molecular Dynamics, Amersham)

[2] = tested on: hK4 intracellular levels in OVCAR-3; experiment: Western blot and densitometry of hK4 intracellular levels in OVCAR-3 cells (oestrogen regulation); format: cell-based, human
Description: Normal ovary and ovarian tumour samples were obtained at surgery from women who underwent laparotomy for benign and malignant conditions in the Department of Obstetrics and Gynaecology at the Royal Women's Hospitals and Monash Medical Centre. Ethics approval was obtained from the respective institutional Ethics Committees and informed consent was obtained from all patients. Epithelial cells from normal, benign and malignant ovaries were isolated from some of these tissue samples and the primary cultured cells were grown in M199 (Sigma, St. Louis, Mo., USA) and MCDB 105 (Sigma) media supplemented with 10% FCS and 10 ng/mL human epidermal growth factor (Boehringer Mannheim, Germany) (17). The ovarian cancer cell lines, that were used in this study, were derived from late stage serous carcinomas with well (PEO14 and OAW42), moderate (SKOV-3 and OVCAR-3) or poor (JAM, CI-80-13S, PEO1 and PEO4) differentiation. SKOV-3 and OVCAR-3 were from American Type Culture Collection, and the remainder have been described previously (18, 19). These cell lines were grown in RPMI (Life Technologies, Inc., Gaithersburg. MD, USA) supplemented with 10% FCS. For the oestrogen regulation study, OVCAR-3 cells were grown to 50% confluency. […]

| SMILES | levels of K4 protein elevated compared to the control [1] [fold] | effect on intracellular hK4 levels (densitometry of Western blot) ([2]; OVCAR-3, 100 nM, over 30 hrs) | up-regulation of hK4 intracellular levels ([2]; OVCAR-3 ovarian carcinoma cell line, 100 nM, 8-30 hr, time dependent) |
| --- | --- | --- | --- |
| CC(=O)[C@H]1CC[C@H]2[C@@H]3CCC4=CC(=O)CC[C@]4(C)[C@H]3CC[C@]12C [progesterone] | 27 |  |  |
| C[C@]12CC[C@@H]3c4ccc(O)cc4CC[C@H]3[C@@H]1CC[C@@H]2O [estradiol, 17β-estradiol] | 16 | up-regulation | 1.5-4 fold |
